BindingDB's records for PubMed 20126400 (University of Oklahoma, 2010)

What was measured:
Assay in all cases: Ray2010 Assay 74
[1] = target: Sigma intracellular receptor 2 (Homo sapiens, UniProt Q5BJF2)
Description: (§1) Table S2 shows raw Ki data for the current study combined with data collected from the literature for the ten additional compounds.

[2] = target: T1, Alpha-2C adrenergic receptor (Homo sapiens, UniProt P18825)
T1 sequence (P18825 whole entry): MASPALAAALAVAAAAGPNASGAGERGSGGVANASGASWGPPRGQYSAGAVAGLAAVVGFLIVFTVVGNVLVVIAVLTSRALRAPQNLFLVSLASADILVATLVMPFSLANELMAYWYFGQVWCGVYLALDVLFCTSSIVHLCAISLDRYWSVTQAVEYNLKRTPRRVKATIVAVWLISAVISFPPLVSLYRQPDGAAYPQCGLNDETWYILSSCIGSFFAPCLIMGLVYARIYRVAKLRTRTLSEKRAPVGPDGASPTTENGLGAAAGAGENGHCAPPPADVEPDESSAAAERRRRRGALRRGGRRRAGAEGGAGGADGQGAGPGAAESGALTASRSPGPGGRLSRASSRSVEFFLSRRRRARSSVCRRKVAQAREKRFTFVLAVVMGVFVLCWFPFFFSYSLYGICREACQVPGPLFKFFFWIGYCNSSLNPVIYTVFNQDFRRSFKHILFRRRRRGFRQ
Description: as §1

[3] = target: Beta-2 adrenergic receptor (Homo sapiens, UniProt P07550)
Description: as §1

Nischarin = Nischarin (Homo sapiens, UniProt Q9Y2I1)
Chain of Nischarin (Q9Y2I1 whole entry): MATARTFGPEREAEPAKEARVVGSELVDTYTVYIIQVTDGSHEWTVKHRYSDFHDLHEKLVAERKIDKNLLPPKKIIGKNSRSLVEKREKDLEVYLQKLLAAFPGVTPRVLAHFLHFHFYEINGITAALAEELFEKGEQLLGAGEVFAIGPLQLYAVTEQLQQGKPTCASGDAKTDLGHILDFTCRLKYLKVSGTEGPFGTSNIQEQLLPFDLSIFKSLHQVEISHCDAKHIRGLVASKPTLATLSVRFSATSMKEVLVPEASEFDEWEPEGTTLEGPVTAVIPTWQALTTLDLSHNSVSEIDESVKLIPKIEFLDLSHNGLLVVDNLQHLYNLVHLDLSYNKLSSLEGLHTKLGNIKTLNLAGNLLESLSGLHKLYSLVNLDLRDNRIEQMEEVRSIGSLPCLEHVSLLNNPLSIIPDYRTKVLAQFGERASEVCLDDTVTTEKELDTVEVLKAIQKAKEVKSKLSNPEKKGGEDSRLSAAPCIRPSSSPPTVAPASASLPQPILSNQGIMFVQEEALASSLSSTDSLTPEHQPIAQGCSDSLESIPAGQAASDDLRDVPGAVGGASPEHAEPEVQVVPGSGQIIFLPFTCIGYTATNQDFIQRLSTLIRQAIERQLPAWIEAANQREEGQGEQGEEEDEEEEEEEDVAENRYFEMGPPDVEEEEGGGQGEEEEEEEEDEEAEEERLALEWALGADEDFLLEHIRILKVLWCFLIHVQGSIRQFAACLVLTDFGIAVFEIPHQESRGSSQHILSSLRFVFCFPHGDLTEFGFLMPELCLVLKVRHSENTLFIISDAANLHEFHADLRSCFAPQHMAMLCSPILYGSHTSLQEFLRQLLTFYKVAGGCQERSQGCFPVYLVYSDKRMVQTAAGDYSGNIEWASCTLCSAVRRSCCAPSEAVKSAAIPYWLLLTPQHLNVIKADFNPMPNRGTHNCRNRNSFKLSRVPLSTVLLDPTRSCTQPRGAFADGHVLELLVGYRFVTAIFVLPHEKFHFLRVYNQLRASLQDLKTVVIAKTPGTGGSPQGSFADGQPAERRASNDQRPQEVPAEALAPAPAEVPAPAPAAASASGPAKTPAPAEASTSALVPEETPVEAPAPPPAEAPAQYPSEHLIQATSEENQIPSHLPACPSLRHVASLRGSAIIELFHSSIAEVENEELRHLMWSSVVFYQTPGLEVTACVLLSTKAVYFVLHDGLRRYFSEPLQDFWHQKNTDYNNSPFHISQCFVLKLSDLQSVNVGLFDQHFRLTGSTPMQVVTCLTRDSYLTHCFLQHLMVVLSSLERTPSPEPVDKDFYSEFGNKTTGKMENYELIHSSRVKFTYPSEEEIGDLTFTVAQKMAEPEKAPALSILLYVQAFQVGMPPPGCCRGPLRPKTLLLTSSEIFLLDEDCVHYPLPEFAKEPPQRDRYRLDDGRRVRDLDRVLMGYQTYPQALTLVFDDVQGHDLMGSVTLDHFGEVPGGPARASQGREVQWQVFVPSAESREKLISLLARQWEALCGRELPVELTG
Description: as §1

[4] = target: T2, 5-hydroxytryptamine receptor 2C (Homo sapiens, UniProt P28335)
T2 sequence (P28335 whole entry): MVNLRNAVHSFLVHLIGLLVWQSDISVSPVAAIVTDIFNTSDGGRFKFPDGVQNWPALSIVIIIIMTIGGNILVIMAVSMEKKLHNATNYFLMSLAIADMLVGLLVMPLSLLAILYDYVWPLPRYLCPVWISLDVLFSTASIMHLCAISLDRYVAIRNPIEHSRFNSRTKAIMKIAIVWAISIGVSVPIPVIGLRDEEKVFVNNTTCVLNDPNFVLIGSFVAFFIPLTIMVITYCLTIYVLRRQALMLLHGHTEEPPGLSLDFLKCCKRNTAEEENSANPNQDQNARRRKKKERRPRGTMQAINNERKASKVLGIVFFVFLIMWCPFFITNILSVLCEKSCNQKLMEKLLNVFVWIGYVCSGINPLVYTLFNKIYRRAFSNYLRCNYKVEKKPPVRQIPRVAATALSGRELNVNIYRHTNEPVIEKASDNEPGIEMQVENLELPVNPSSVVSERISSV
Description: as §1

[5] = target: Neuronal acetylcholine receptor subunit alpha-4/beta-2 (Mus musculus, UniProt O70174+Q9ERK7)
Description: as §1

[6] = target: Neuronal acetylcholine receptor subunit alpha-2/beta-2 (Homo sapiens, UniProt P17787+Q15822)
Chain of Neuronal acetylcholine receptor subunit alpha-2/beta-2 (P17787 whole entry): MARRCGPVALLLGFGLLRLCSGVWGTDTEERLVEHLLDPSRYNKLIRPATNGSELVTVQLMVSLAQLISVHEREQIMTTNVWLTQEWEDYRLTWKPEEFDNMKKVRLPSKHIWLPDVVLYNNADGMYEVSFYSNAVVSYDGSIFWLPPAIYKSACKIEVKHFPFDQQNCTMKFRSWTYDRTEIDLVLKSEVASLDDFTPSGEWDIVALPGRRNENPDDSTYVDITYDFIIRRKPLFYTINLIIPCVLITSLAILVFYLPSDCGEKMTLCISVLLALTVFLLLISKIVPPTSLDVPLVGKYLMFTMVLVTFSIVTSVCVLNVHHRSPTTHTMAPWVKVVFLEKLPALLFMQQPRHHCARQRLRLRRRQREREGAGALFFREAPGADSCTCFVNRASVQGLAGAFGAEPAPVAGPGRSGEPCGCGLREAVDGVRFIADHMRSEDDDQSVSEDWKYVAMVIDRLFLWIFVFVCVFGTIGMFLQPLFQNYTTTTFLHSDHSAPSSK
Chain of Neuronal acetylcholine receptor subunit alpha-2/beta-2 (Q15822 whole entry): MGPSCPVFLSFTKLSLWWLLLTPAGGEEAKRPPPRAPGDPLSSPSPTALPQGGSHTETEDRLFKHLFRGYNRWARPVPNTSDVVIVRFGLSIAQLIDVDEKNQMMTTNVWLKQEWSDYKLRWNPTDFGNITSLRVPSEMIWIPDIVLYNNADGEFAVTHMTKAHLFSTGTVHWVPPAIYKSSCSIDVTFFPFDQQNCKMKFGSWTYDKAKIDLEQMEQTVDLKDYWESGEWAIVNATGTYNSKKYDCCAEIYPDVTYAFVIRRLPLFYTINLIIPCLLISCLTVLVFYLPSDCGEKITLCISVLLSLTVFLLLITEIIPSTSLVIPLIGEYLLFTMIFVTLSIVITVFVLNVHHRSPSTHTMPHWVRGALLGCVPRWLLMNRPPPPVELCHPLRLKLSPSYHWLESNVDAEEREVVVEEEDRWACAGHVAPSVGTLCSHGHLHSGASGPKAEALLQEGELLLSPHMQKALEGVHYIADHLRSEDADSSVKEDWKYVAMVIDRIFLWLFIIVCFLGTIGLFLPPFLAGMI
Description: as §1

[7] = target: Neuronal acetylcholine receptor subunit alpha-3/beta-2 (Homo sapiens, UniProt P17787+P32297)
Chain of Neuronal acetylcholine receptor subunit alpha-3/beta-2 (P17787 whole entry): as the sequence (P17787 whole entry) above
Chain of Neuronal acetylcholine receptor subunit alpha-3/beta-2 (P32297 whole entry): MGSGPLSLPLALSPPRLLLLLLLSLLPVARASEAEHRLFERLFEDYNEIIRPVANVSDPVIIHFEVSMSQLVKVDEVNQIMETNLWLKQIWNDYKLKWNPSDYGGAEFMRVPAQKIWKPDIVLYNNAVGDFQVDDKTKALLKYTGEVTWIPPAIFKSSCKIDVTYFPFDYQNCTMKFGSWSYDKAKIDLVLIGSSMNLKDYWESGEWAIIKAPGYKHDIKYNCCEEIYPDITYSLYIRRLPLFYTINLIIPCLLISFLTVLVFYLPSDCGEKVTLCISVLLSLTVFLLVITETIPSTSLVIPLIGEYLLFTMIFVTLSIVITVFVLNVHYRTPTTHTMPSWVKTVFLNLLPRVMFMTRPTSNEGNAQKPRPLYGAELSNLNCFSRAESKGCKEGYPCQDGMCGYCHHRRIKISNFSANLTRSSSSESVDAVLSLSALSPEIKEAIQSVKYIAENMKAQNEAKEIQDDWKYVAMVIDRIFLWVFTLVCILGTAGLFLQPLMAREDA
Description: as §1

[8] = target: Neuronal acetylcholine receptor subunit alpha-2/beta-4 (Homo sapiens, UniProt P30926+Q15822)
Description: as §1

[9] = target: Metabotropic glutamate receptor 2 (Homo sapiens, UniProt Q14416)
Chain of Metabotropic glutamate receptor 2 (Q14416 whole entry): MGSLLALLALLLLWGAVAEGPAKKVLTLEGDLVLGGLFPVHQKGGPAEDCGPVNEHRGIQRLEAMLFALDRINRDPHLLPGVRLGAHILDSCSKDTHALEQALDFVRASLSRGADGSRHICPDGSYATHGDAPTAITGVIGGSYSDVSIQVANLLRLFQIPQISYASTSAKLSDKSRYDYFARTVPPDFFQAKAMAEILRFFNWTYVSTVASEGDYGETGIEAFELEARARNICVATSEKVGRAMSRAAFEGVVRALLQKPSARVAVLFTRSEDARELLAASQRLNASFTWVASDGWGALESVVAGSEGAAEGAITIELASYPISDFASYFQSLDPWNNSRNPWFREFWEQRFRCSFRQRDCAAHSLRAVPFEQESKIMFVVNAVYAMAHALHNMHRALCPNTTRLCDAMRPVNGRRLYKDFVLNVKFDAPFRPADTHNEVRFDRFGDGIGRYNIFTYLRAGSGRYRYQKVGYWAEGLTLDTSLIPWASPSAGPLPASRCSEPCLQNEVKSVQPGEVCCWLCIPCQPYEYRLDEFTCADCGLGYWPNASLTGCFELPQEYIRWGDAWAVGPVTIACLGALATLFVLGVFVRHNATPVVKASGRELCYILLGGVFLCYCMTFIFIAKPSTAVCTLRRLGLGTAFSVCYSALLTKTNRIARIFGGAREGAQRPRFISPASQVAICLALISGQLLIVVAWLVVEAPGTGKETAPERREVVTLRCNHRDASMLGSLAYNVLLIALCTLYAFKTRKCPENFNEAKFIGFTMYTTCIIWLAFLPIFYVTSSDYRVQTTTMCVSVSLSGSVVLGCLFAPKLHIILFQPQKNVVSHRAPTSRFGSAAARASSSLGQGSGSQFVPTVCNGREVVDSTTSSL
Description: as §1

[10] = target: Neuronal acetylcholine receptor subunit alpha-4/beta-4 (Homo sapiens, UniProt P30926+P43681)
Description: as §1

[11] = target: Metabotropic glutamate receptor 6 (Homo sapiens, UniProt O15303)
Description: as §1

[12] = target: Metabotropic glutamate receptor 1 (Homo sapiens, UniProt Q13255)
Description: as §1

[13] = target: Metabotropic glutamate receptor 5 (Homo sapiens, UniProt P41594)
Description: as §1

[14] = target: Neuronal acetylcholine receptor subunit alpha-4/beta-2 (Homo sapiens, UniProt P17787+P43681)
Description: as §1

[15] = target: Metabotropic glutamate receptor 4 (Homo sapiens, UniProt Q14833)
Chain of Metabotropic glutamate receptor 4 (Q14833 whole entry): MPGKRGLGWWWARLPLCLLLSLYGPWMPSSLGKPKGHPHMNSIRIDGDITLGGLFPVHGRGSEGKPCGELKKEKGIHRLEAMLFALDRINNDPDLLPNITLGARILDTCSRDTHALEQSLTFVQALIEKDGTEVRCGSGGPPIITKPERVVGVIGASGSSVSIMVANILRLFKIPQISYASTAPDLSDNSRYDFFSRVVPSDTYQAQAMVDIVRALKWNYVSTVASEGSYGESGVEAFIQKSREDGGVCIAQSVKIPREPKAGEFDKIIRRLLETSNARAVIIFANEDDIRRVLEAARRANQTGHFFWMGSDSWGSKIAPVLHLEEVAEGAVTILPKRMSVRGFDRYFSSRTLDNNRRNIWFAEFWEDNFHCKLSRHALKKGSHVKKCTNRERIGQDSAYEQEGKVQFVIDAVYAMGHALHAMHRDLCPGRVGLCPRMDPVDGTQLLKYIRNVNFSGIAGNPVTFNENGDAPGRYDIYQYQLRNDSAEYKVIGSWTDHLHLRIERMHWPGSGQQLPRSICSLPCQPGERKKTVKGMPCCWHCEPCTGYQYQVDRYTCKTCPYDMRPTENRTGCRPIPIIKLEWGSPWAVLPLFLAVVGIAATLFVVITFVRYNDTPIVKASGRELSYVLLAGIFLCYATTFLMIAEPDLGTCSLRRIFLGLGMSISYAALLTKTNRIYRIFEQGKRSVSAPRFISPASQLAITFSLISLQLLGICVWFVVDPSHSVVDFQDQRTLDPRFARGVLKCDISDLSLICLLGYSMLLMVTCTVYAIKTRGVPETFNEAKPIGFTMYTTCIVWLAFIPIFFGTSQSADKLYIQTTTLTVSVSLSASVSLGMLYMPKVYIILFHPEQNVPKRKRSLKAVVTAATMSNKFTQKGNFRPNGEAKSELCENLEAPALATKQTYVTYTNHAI
Description: as §1

[16] = target: Metabotropic glutamate receptor 8 (Homo sapiens, UniProt O00222)
Description: as §1

[17] = target: ATP-dependent translocase ABCB1 (Homo sapiens, UniProt P08183)
Description: as §1

[18] = target: Gamma-aminobutyric acid receptor subunit beta-1 (Homo sapiens, UniProt P18505)
Description: as §1

Glutamate receptor 4 = Glutamate receptor 4 (Homo sapiens, UniProt P48058)
Description: as §1

Chain of Sigma intracellular receptor 2 (Q5BJF2 whole entry): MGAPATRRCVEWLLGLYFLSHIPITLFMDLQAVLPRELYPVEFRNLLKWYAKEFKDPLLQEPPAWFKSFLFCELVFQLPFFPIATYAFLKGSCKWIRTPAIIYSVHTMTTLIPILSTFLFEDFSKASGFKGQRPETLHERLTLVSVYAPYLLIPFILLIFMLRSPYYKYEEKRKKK

| Compound | Ki [1] [µM] | Ki [2] [nM] | Ki [3] [µM] | Ki (Nischarin) [nM] | Ki [6] [µM] | Ki [7] [µM] | other results |
| --- | --- | --- | --- | --- | --- | --- | --- |
| CCOc1cc(OC)c(CC(C)N)cc1OC (centres undefined) | > 10 | > 10000 | > 10 | > 10000 |  |  | Ki [4]: > 10 µM |
| COc1cc(CCN)cc(OC)c1OC [3,4,5-trimethoxyphenylethylamine] | > 10 | 745 | > 10 | 2680 |  |  | Ki [4]: > 10 µM |
| CCc1cc(OC)c(CCN)cc1OC [2-(2,5-dimethoxy-4-ethylphenyl)ethylamine] | > 10 | 90.2 |  | > 10000 |  |  |  |
| COc1ccc2[nH]cc(CCN(C)C(C)C)c2c1 [5-meo-mipt] | 0.918 | 637 | > 10 | 879 |  |  |  |
| CAS_82830-44-2::(2R)-1-(4-iodo-2,5-dimethoxyphenyl)propan-2-amine::DOI,(-)::US20250270173, Compound DOI | 9.17 | 601 | 0.139 | > 10000 | > 10 | > 10 | Ki [5]: > 10 µM; Ki [4]: 0.0458 µM |
| COC(=O)[C@@H]1C[C@H](OC(C)=O)C(=O)[C@H]2[C@@]1(C)CC[C@H]1C(=O)O[C@H](c3ccoc3)C[C@]21C [2S,4aR,6a(R,7R,9S,10aS,10bR)-9-(acetyloxy)-2-(furan-3-yl)dodecahydro-6a,10b-dimethyl-4,10-dioxo-2H-naphtho[2,1-c]pyran-7-carboxylic acid methyl ester] |  |  | > 10 |  |  |  | Ki [4]: > 10 µM |
| COc1ccc2[nH]cc(CCN(C(C)C)C(C)C)c2c1 [5-meo-dipt] | 3 | 2860 | > 10 | 760 |  |  | Ki [4]: > 10 µM |
| CN(C)CCc1c[nH]c2ccccc12 [2-(1H-indol-3-yl)-N,N-dimethylethanamine] | > 10 |  | > 10 | 650 |  |  |  |
| CN(C)CCc1c[nH]c2cc(F)ccc12 [6-f-dmt] | 7.13 | 149 | > 10 | 898 |  |  |  |
| C[C@@H]1C[C@H](C)N1C(=O)C1C=C2c3cccc4[nH]cc(c34)C[C@H]2N(C)C1 (stereo partly drawn) [cis-2a] |  |  |  |  | > 10 | > 10 | Ki [8]: > 10 µM; Ki [9]: > 10 µM; Ki [5]: > 10 µM; Ki [10]: > 10 µM; Ki [11]: > 10 µM; Ki [12]: > 10 µM; Ki [13]: > 10 µM; Ki [14]: > 10 µM; Ki [15]: > 10 µM; Ki [16]: > 10 µM |
| NCCc1c2c(c(Br)c3c1OCC3)OCC2 [2-(8-Bromo-2,3,6,7-tetrahydro-benzo[1,2-b;4,5-b']difuran-4-yl)-ethylamine] | > 10 | 233 | > 10 | > 10000 | > 10 | > 10 | Ki [8]: > 10 µM; Ki [5]: > 10 µM; Ki [10]: > 10 µM; Ki [4]: 0.0106 µM; Ki [14]: > 10 µM |
| CCc1cc(OC)c(CC(C)N)cc1OC (centres undefined) | 9.56 | 1450 |  | > 10000 |  |  | Ki [17]: > 10 µM |
| COc1cc(CC(C)N)c(OC)cc1C (stereo not drawn) [(+/-)2-(2,5-Dimethoxy-4-methyl-phenyl)-1-methyl-ethylamine] | > 10 | 921 |  | > 10000 | > 10 | > 10 | Ki [8]: > 10 µM; Ki [5]: > 10 µM; Ki [10]: > 10 µM; Ki [14]: > 10 µM |
| CCSc1cc(OC)c(CCN)cc1OC [2C-T-2] | > 10 | 166 |  | 2080 |  |  |  |
| COc1ccc2[nH]cc(CCN(C)C)c2c1 [3-(2-DIMETHYLAMINOETHYL)-5-METHOXYINDOLE] | > 10 | 508 | > 10 | 2500 |  |  |  |
| CNC(C)Cc1ccc2c(c1)OCO2 (centres undefined) [mdma] |  | 1350 | > 10 | 220 | > 10 | > 10 | Ki [8]: > 10 µM; Ki [9]: > 10 µM; Ki [10]: > 10 µM; Ki [18]: > 10 µM; Ki [12]: > 10 µM; Ki [13]: > 10 µM; Ki [15]: > 10 µM |
| CN(C)CCc1c[nH]c2cccc(O)c12 [4-hydroxy-N,N-dimethyltryptamine] | > 10 |  | > 10 | 792 |  |  |  |
| CCCN(CCC)CCc1c[nH]c2ccccc12 [dpt] | 2.92 | 514 | > 10 |  |  |  |  |
| COc1cc(OC)c(OC)cc1CC(C)N (stereo not drawn) [(+/-)1-Methyl-2-(2,4,5-trimethoxy-phenyl)-ethylamine] |  | > 10000 | > 10 |  |  |  |  |
| CC(C)N(CCc1c[nH]c2ccccc12)C(C)C [dipt] | 2.7 | 2520 | > 10 | 356 |  |  | Ki [4]: > 10 µM |
| COc1cc(CCN)c(OC)cc1Br | > 10 | 103 |  | 2160 |  |  |  |
| CCSc1cc(OC)c(CC(C)N)cc1OC (centres undefined) [2-(4-Ethylsulfanyl-2,5-dimethoxy-phenyl)-1-methyl-ethylamine] | > 10 | 1390 |  | 320 |  |  |  |
| CCSc1cc(OC)c(CC(N)CC)cc1OC (centres undefined) [1-(4-Ethylsulfanyl-2,5-dimethoxy-benzyl)-propylamine] | > 10 | > 10000 |  | 947 |  |  |  |
| COc1ccc2[nH]c(C)c(CCN(C)C)c2c1 [[2-(5-Methoxy-2-methyl-1H-indol-3-yl)-ethyl]-dimethyl-amine (C2H2O)] |  |  |  |  | > 10 | > 10 | Ki [8]: > 10 µM; Ki [5]: > 10 µM; Ki [10]: > 10 µM; Ki [14]: > 10 µM; Ki (Glutamate receptor 4): > 10 µM |
| CCN(CC)C(=O)[C@@H]1C=C2c3cccc4[nH]cc(c34)C[C@H]2N(C)C1 [[N-methyl-3H]LSD] |  |  |  |  | > 10 | > 10 | Ki [8]: > 10 µM; Ki [9]: > 10 µM; Ki [5]: > 10 µM; Ki [10]: > 10 µM; Ki [11]: > 10 µM; Ki [12]: > 10 µM; Ki [13]: > 10 µM; Ki [14]: > 10 µM; Ki [15]: > 10 µM; Ki [16]: > 10 µM |
| CC(N)Cc1ccc2c(c1)OCO2 (centres undefined) |  | 229 | > 10 | > 10000 |  |  |  |
| COc1cc(CC(C)N)c(OC)cc1Br (stereo not drawn) [2-(4-Bromo-2,5-dimethoxy-phenyl)-1-methyl-ethylamine((-)-DOB)] | > 10 | 594 |  |  |  |  |  |
| COc1cc(CC(C)N)cc(OC)c1OC (centres undefined) | 0.536 | 5010 | > 10 | > 10000 |  |  | Ki [17]: > 10 µM |
| CCc1[nH]c2ccc(OC)cc2c1CCN(C)C [2-ethyl-5-methoxy-N,N-dimethyltryptamine] |  |  |  |  | > 10 | > 10 | Ki [8]: > 10 µM; Ki [5]: > 10 µM; Ki [10]: > 10 µM; Ki [14]: > 10 µM; Ki (Glutamate receptor 4): > 10 µM |
| C[C@@H]1C[C@@H](C)N1C(=O)C1C=C2c3cccc4[nH]cc(c34)C[C@H]2N(C)C1 (some centres undefined) [rr-2b] |  |  |  |  | > 10 | > 10 | Ki [8]: > 10 µM; Ki [9]: > 10 µM; Ki [5]: > 10 µM; Ki [10]: > 10 µM; Ki [11]: > 10 µM; Ki [12]: > 10 µM; Ki [13]: > 10 µM; Ki [14]: > 10 µM; Ki [15]: > 10 µM; Ki [16]: > 10 µM |
